Data on eleven compounds can be found in US9732085B2, “Pyridinone and pyrimidinone derivatives as factor Xia” (ONO PHARMACEUTICAL CO., LTD., priority 2011, dated 2017).

Structures can show the parent of a compound that is named as a salt. Where two headings read alike, the source gives them in different places. Some results are limits rather than exact numbers.

The target in this experiment is Human Factor XIa (Homo sapiens (Human), UniProt P03951). Nature of the experiment: Factor XIa enzyme activity (chromogenic substrate S-2366). The experiment is classed as biochemical. As to conditions: read-out: In vitro FXIa inhibitory activity IC50. The method, then: Inhibitory activities of compounds of the present invention against factor XIa, Xa, XIIa, IXa, VIIa, plasma kallikrein or thrombin were evaluated using appropriate purified proteases and synthetic substrates. The rate of hydrolysis of the chromogenic substrate by the relevant protease was continuously measured at 405 nm.
Chain of Human Factor XIa (P03951 388-625): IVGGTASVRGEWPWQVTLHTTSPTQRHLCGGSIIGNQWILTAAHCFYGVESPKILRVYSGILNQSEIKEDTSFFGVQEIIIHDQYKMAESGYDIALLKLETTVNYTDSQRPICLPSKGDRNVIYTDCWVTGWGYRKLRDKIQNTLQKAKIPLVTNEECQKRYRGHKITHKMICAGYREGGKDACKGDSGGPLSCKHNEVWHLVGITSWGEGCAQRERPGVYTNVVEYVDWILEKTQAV
Chain of Human Factor XIa (P03951 19-387 partner): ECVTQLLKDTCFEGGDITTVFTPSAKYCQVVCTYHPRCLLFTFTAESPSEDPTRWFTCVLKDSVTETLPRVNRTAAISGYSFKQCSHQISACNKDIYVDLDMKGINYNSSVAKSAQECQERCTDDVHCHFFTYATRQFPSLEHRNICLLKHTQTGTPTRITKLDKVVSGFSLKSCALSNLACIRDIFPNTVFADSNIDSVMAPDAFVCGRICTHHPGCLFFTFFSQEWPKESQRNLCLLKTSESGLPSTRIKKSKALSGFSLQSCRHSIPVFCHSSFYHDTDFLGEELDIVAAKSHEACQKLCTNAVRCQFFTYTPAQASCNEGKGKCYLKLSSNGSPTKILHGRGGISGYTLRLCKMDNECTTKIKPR
Inhibitory activity against each enzyme was calculated as % inhibition using the equation described below. % Inhibition=[[(rate without compound)−(rate with compound)](rate without compound)]×100%. Each half maximal inhibitory concentration (IC50) value was determined by plotting the concentration of compound of the invention against the % inhibition. (1-1) Factor XIa Enzyme Activity
Human Factor XIa (Haematologic Technologies Inc.) activity was measured at an enzyme concentration of 0.1 U/mL in 150 mM NaCl, 5 mM KCl, 1 mg/mL PEG6000, 50 mM HEPES-NaOH (pH7.4) with 300 μM S-2366 (pyroGlu-Pro-Arg-pNA, Chromogenix).

Setting [1] is: human Factor XIa 0.1 U/mL, 300 μM S-2366, pH7.4.

Regarding `O=C1CCc2cc(-c3c[nH]c(C4CCc5cc(-c6cc(Cl)ccc6-n6cnnn6)cc(=O)n54)n3)ccc2N1` (centres unmarked) [Example 86, 6-(2-{7-[5-chloro-2-(1H-tetrazol-1-yl)phenyl]-5-oxo-1,2,3,5-tetrahydro-3-indolizinyl}-1H-imidazol-4-yl)-3,4-dihydro-2(1H)-quinolinone], the IC50 under setting [1] came out at 3.9 nM. With `COC(=O)Nc1ccc(-c2cnc([C@@H]3CSc4cc(-c5cc(Cl)ccc5-n5cnnn5)cc(=O)n43)[nH]2)cc1` [Example 270, methyl[4-(2-{(3R)-7-[5-chloro-2-(1H-tetrazol-1-yl)phenyl]-5-oxo-2,3-dihydro-5H-[1,3]thiazolo[3,2-a]pyridin-3-yl}-1H-imidazol-5-yl)phenyl]carbamate], the half-maximal inhibitory concentration (IC50) under setting [1] came out at 11 nM.

Regarding `O=C(O)c1ccc(-c2cnc([C@@H]3CCc4c(Cl)c(-c5cc(Cl)ccc5-n5cnnn5)cc(=O)n43)[nH]2)s1` [Example 387, 5-(2-{(3S)-8-chloro-7-[5-chloro-2-(1H-tetrazol-1-yl)phenyl]-5-oxo-1,2,3,5-tetrahydro-3-indolizinyl}-1H-imidazol-5-yl)-2-thiophenecarboxylic acid hydrochloride], the IC50 under setting [1] worked out at 1.6 nM. On the same count and under the same terms, next, `COCCOC(=O)Nc1ccc(-c2cnc(C3CCc4cc(-c5cc(Cl)ccc5-n5cnnn5)cc(=O)n43)[nH]2)cc1` (centres unmarked) [129(2), 2-methoxyethyl[4-(2-{7-[5-chloro-2-(1H-tetrazol-1-yl)phenyl]-5-oxo-1,2,3,5-tetrahydro-3-indolizinyl}-1H-imidazol-5-yl)phenyl]carbamate]: 4.6 nM. In the case of `COC(=O)Nc1ccc(-c2[nH]c([C@@H]3CCc4cc(-c5cc(Cl)ccc5-n5cnnn5)cc(=O)n43)nc2Cl)nc1` [Example 230, methyl[6-(4-chloro-2-{(3S)-7-[5-chloro-2-(1H-tetrazol-1-yl)phenyl]-5-oxo-1,2,3,5-tetrahydro-3-indolizinyl}-1H-imidazol-5-yl)-3-pyridinyl]carbamate], the half-maximal inhibitory concentration (IC50) under setting [1] came out at 11 nM. Same read-out and setting: next, `O=C(O)c1cc(-c2cnc([C@@H]3CCc4c(Cl)c(-c5cc(Cl)ccc5-n5cnnn5)cc(=O)n43)[nH]2)cs1` [Example 391, 4-(2-{(3S)-8-chloro-7-[5-chloro-2-(1H-tetrazol-1-yl)phenyl]-5-oxo-1,2,3,5-tetrahydro-3-indolizinyl}-1H-imidazol-5-yl)-2-thiophenecarboxylic acid trifluoroacetate]: 1.1 nM. For the compound `O=C(O)c1cc(-c2nc(F)c(C3CCc4cc(-c5cc(Cl)ccc5-n5cnnn5)cc(=O)n43)[nH]2)cs1` (centres unmarked) [Example 848, 4-(5-{7-[5-chloro-2-(1H-tetrazol-1-yl)phenyl]-5-oxo-1,2,3,5-tetrahydro-3-indolizinyl}-4-fluoro-1H-imidazol-2-yl)-2-thiophenecarboxylic acid], the IC50 under setting [1] was determined as 1.7 nM. Still for that read-out and setting: next, `COC(=O)Nc1ccc(-c2cnc([C@@H]3CCc4cc(-c5cc(Cl)ccc5-n5cc(C#N)nn5)cc(=O)n43)[nH]2)cc1` [Example 290, methyl[4-(2-{(3S)-7-[5-chloro-2-(4-cyano-1H-1,2,3-triazol-1-yl)phenyl]-5-oxo-1,2,3,5-tetrahydro-3-indolizinyl}-1H-imidazol-5-yl)phenyl]carbamate]: 2.5 nM. On the same count and under the same terms, next, `COC(=O)Nc1ccc(-c2nc(Cl)c(C3CCc4cc(-c5cc(Cl)ccc5-n5cnnn5)cc(=O)n43)[nH]2)cc1` (centres unmarked) [Example 241, methyl[4-(4-chloro-5-{7-[5-chloro-2-(1H-tetrazol-1-yl)phenyl]-5-oxo-1,2,3,5-tetrahydro-3-indolizinyl}-1H-imidazol-2-yl)phenyl]carbamate]: 4.8 nM. Consider `COc1cc(Nc2ccc3n(c2=O)C(c2ccc(F)cc2)CCC3)ccc1-n1cnc(C)c1` (centres unmarked) [Comp. Ex 4, reference compound], for which the IC50 (Table 2, comparison with comparative compounds) is more than 10000 nM. Turning to `COCCC(c1nc(Cl)c(-c2ccc(NC(=O)OC)cc2)[nH]1)n1ccc(-c2cc(Cl)ccc2-n2cnnn2)cc1=O` (centres unmarked) [Example 264, methyl{4-[4-chloro-2-(1-{4-[5-chloro-2-(1H-tetrazol-1-yl)phenyl]-2-oxo-1(2H)-pyridinyl]-3-methoxypropyl)-1H-imidazol-5-yl}phenyl}carbamate], the concentration for half-maximal inhibition (IC50) under setting [1] turned out to be 6.1 nM.
